According to patent US10344060B2 (priority 2013, dated 2019):

Target: hNav1.7 (Homo sapiens, UniProt Q15858)
Test: cell-based
Format: cell-based
Settings: for IC50: Table 12, PatchXpress, tonic block, read-out: PX hNav1.7 Tonic IC50; for Nav1.4/Nav1.7 / Nav1.5/Nav1.7: ratio of PX tonic IC50 values, Table 11

hNav1.7, sequence (Q15858 whole entry): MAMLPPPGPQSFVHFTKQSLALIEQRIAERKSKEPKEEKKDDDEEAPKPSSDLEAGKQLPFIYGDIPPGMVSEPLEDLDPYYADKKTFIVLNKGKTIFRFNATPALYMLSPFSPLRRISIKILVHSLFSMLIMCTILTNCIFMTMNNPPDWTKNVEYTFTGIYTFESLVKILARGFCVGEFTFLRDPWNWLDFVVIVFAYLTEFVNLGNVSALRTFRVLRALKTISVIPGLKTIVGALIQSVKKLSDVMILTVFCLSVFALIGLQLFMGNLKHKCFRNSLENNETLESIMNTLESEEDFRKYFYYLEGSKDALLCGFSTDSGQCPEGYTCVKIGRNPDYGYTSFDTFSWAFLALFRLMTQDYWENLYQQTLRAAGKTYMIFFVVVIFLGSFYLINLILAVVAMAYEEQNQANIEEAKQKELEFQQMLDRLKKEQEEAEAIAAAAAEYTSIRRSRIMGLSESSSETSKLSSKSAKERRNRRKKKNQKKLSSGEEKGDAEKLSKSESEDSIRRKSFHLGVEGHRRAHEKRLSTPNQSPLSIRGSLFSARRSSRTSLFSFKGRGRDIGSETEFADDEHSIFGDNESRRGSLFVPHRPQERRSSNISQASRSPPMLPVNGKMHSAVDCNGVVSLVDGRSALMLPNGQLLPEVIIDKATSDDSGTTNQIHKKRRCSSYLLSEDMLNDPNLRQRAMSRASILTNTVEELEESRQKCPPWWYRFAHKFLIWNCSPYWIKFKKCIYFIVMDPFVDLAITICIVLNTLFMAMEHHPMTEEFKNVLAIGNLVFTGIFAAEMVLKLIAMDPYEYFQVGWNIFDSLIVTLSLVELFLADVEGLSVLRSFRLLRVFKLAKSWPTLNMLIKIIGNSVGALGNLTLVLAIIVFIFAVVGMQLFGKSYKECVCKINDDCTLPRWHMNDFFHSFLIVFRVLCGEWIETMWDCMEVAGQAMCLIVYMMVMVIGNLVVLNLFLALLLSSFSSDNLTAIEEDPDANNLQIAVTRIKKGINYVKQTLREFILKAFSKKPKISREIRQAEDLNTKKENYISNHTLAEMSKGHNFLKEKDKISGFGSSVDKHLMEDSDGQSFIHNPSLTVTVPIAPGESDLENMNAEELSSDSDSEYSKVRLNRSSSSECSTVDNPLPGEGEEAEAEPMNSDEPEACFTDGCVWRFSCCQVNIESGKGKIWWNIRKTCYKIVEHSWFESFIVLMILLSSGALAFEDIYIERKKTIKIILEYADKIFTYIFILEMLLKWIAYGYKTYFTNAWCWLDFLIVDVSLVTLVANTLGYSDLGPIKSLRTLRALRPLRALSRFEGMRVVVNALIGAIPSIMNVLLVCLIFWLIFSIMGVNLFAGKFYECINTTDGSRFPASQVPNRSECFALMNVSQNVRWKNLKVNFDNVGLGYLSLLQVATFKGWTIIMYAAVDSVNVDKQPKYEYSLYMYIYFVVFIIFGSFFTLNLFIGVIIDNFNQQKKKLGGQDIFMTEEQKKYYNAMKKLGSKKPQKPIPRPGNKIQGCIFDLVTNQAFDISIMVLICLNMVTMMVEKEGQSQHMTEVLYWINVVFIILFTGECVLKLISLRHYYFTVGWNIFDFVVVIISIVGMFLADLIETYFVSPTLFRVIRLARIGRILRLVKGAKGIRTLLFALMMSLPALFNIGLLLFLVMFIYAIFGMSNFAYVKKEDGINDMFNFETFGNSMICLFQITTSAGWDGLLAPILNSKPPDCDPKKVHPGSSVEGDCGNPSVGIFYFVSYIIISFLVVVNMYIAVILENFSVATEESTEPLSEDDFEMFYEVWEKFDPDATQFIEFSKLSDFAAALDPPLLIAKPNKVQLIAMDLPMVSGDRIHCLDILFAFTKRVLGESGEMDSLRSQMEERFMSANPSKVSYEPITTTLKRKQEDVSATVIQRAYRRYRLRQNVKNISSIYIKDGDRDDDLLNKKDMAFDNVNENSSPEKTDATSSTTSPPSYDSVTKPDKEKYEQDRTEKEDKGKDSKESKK

Q: How did the Wash out (PatchXpress Nav1.7, whether block washes out (Yes/No)) turn out when `CCCC[C@@H]1NC(=O)[C@H](Cc2c[nH]c3ccccc23)NC(=O)[C@H](CCCCN)NC(=O)[C@H](CCC(N)=O)NC(=O)[C@@H](NC(=O)[C@H](Cc2ccc(O)cc2)NC(=O)[C@@H](N)Cc2cn(CCOCCOCCOCCOCCOCCOCCOCCOCCOCCOCCOCCOCCOCCOCCOCCOCCOCCOCCOCCOCCOCCOCCOCCNC(=O)c3cc(CN)cc(C(=O)NCCOCCOCCOCCOCCOCCOCCOCCOCCOCCOCCOCCOCCOCCOCCOCCOCCOCCOCCOCCOCCOCCOCCOCCn4cc(C[C@H](N)C(=O)N[C@@H](Cc5ccc(O)cc5)C(=O)N[C@H]5CSSC[C@@H]6NC(=O)[C@@H]7CSSC[C@@H](C(=O)N[C@@H](CCCNC(=N)N)C(=O)N[C@@H](CCCCN)C(=O)N[C@@H](CCC(=O)O)C(=O)N[C@H](C(N)=O)[C@@H](C)CC)NC(=O)[C@H](Cc8c[nH]c9ccccc89)NC(=O)[C@H](CC(C)C)NC(=O)[C@H](CCCCN)NC(=O)[C@H](CSSC[C@H](NC(=O)[C@H]([C@@H](C)O)NC(=O)[C@H](Cc8c[nH]c9ccccc89)NC(=O)[C@H](CCCC)NC(=O)[C@H](Cc8c[nH]c9ccccc89)NC(=O)[C@H](CCCCN)NC(=O)[C@H](CCC(N)=O)NC5=O)C(=O)N[C@@H](CC(=O)O)C(=O)N[C@@H](CO)C(=O)N[C@@H](CCCCN)C(=O)N[C@@H](CCCNC(=N)N)C(=O)N[C@@H](C)C(=O)N7)NC(=O)[C@H](CCCNC(=N)N)NC(=O)[C@H](CC(C)C)NC(=O)CNC(=O)[C@H](CCC(=O)O)NC6=O)nn4)c3)nn2)CSSC[C@@H]2NC(=O)[C@@H]3CSSC[C@@H](C(=O)N[C@@H](CCCNC(=N)N)C(=O)N[C@@H](CCCCN)C(=O)N[C@@H](CCC(=O)O)C(=O)N[C@H](C(N)=O)[C@@H](C)CC)NC(=O)[C@H](Cc4c[nH]c5ccccc45)NC(=O)[C@H](CC(C)C)NC(=O)[C@H](CCCCN)NC(=O)[C@H](CSSC[C@H](NC(=O)[C@H]([C@@H](C)O)NC(=O)[C@H](Cc4c[nH]c5ccccc45)NC1=O)C(=O)N[C@@H](CC(=O)O)C(=O)N[C@@H](CO)C(=O)N[C@@H](CCCCN)C(=O)N[C@@H](CCCNC(=N)N)C(=O)N[C@@H](C)C(=O)N3)NC(=O)[C@H](CCCNC(=N)N)NC(=O)[C@H](CC(C)C)NC(=O)CNC(=O)[C@H](CCC(=O)O)NC2=O` [Homodimeric Peptide No. 7] was run?
A: No

Q: `C#CC[C@H](N)C(=O)N[C@@H](Cc1ccc(O)cc1)C(=O)N[C@H]1CSSC[C@@H]2NC(=O)[C@@H]3CSSC[C@@H](C(=O)N[C@@H](CCCNC(=N)N)C(=O)N[C@@H](CCCCN)C(=O)N[C@@H](CCC(=O)O)C(=O)N[C@H](C(N)=O)[C@@H](C)CC)NC(=O)[C@H](Cc4c[nH]c5ccccc45)NC(=O)[C@H](CC(C)C)NC(=O)[C@H](CCCCN)NC(=O)[C@H](CSSC[C@H](NC(=O)[C@H]([C@@H](C)O)NC(=O)[C@H](Cc4c[nH]c5ccccc45)NC(=O)[C@H](CCCC)NC(=O)[C@H](Cc4c[nH]c5ccc(Br)cc45)NC(=O)[C@H](CCCCN)NC(=O)[C@H](CCC(N)=O)NC1=O)C(=O)N[C@@H](CC(=O)O)C(=O)N[C@@H](CO)C(=O)N[C@@H](CCCCN)C(=O)N[C@@H](CCCNC(=N)N)C(=O)N[C@@H](C)C(=O)N3)NC(=O)[C@H](CCCNC(=N)N)NC(=O)[C@H](CC(C)C)NC(=O)CNC(=O)[C@H](CCC(=O)O)NC2=O` [compound 845] was tested. Which IC50 did it give?
A: 53.5 nM

Q: Which Nav1.4/Nav1.7 does the source give for `CCCC[C@@H]1NC(=O)[C@H](Cc2c[nH]c3ccccc23)NC(=O)[C@H](CCCCN)NC(=O)[C@H](CCC(N)=O)NC(=O)[C@@H](NC(=O)[C@H](Cc2ccc(O)cc2)NC(=O)[C@@H](N)CC#N)CSSC[C@@H]2NC(=O)[C@@H]3CSSC[C@@H](C(=O)N[C@@H](CCCNC(=N)N)C(=O)N[C@@H](CCCCN)C(=O)N[C@@H](CCC(=O)O)C(=O)N[C@@H](Cc4c[nH]c5ccccc45)C(N)=O)NC(=O)[C@H](Cc4c[nH]c5ccccc45)NC(=O)[C@H](CC(C)C)NC(=O)[C@H](CCCCN)NC(=O)[C@H](CSSC[C@H](NC(=O)[C@H]([C@@H](C)O)NC(=O)[C@H](Cc4c[nH]c5ccccc45)NC1=O)C(=O)N[C@@H](CC(=O)O)C(=O)N[C@@H](CO)C(=O)N[C@@H](CCCCN)C(=O)N[C@@H](CCCNC(=N)N)C(=O)N[C@@H](C)C(=O)N3)NC(=O)[C@H](CCCNC(=N)N)NC(=O)[C@H](CC(C)C)NC(=O)CNC(=O)[C@H](CCCCNC(=O)CCOCCOCCOCCOCCOCCOCCOCCOCCOCCOCCOCCOCCN)NC2=O` [compound 459] here?
A: 27

Q: For `CCCC[C@@H]1NC(=O)[C@H](Cc2c[nH]c3ccccc23)NC(=O)[C@H](CCCCN)NC(=O)[C@H](CCC(N)=O)NC(=O)[C@@H](NC(=O)[C@H](Cc2ccc(O)cc2)NC(=O)[C@@H](N)CCC)CSSC[C@@H]2NC(=O)[C@@H]3CSSC[C@@H](C(=O)N[C@@H](CCCNC(=N)N)C(=O)N[C@@H](CCCCN)C(=O)N[C@H](C(=O)N[C@H](C(N)=O)[C@@H](C)CC)[C@@H](C)CC)NC(=O)[C@H](Cc4c[nH]c5ccccc45)NC(=O)[C@H](CC(C)C)NC(=O)[C@H](CCCCN)NC(=O)[C@H](CSSC[C@H](NC(=O)[C@H]([C@@H](C)O)NC(=O)[C@H](Cc4c[nH]c5ccccc45)NC1=O)C(=O)N[C@@H](CC(=O)O)C(=O)N[C@@H](CO)C(=O)N[C@@H](CCCCN)C(=O)N[C@@H](CCCNC(=N)N)C(=O)N[C@@H](C)C(=O)N3)NC(=O)[C@H](CCCNC(=N)N)NC(=O)[C@H](CC(C)C)NC(=O)CNC(=O)[C@H](CCC(=O)O)NC2=O` [compound 369], which Nav1.4/Nav1.7 is on record?
A: 552

Q: What about the Nav1.5/Nav1.7 of the same compound?
A: 23418

Q: `CCCC[C@@H]1NC(=O)[C@H](Cc2c[nH]c3ccccc23)NC(=O)[C@H](CCCCN)NC(=O)[C@H](CCC(N)=O)NC(=O)[C@@H](NC(=O)[C@H](Cc2ccc(O)cc2)NC(=O)[C@@H](N)CC#N)CSSC[C@@H]2NC(=O)[C@@H]3CSSC[C@@H](C(=O)N[C@@H](CCCNC(=N)N)C(=O)N[C@@H](CCCCN)C(=O)N[C@@H](CCC(=O)O)C(=O)N[C@H](C(N)=O)[C@@H](C)CC)NC(=O)[C@H](Cc4c[nH]c5ccccc45)NC(=O)[C@H](CC(C)C)NC(=O)[C@H](CCCCN)NC(=O)[C@H](CSSC[C@H](NC(=O)[C@H]([C@@H](C)O)NC(=O)[C@H](Cc4c[nH]c5ccccc45)NC1=O)C(=O)N[C@@H](CC(=O)O)C(=O)N[C@@H](CO)C(=O)N[C@@H](CCCCN)C(=O)N[C@@H](CCCNC(=N)N)C(=O)N[C@@H](CCCCNC(=O)CCOCCOCCOCCOCCOCCOCCOCCOCCOCCOCCOCCOCCN)C(=O)N3)NC(=O)[C@H](CCCNC(=N)N)NC(=O)[C@H](CC(C)C)NC(=O)CNC(=O)[C@H](CCC(=O)O)NC2=O` [compound 455] was tested. Which Nav1.4/Nav1.7 did it give?
A: 86

Q: What about the Nav1.5/Nav1.7 of the same compound?
A: 1101

Q: For `CC[C@H](C)[C@H](NC(=O)[C@H](Cc1ccc(O)cc1)NC(=O)[C@H](CCCCN)NC(=O)[C@H](CCCNC(=N)N)NC(=O)[C@@H]1CSSC[C@@H]2NC(=O)[C@H](C)NC(=O)[C@H](CCCNC(=N)N)NC(=O)[C@H](CCCCN)NC(=O)[C@H](CO)NC(=O)[C@H](CC(=O)O)NC(=O)[C@@H]3CSSC[C@H](NC(=O)[C@H](CCC(=O)O)NC(=O)[C@H](CC(C)C)NC(=O)CNC(=O)[C@H](CCC(=O)O)NC(=O)[C@H](CSSC[C@H](NC(=O)[C@@H](N)Cc4ccc(O)cc4)C(=O)N[C@@H](CCC(N)=O)C(=O)N[C@@H](CCCCN)C(=O)N[C@@H](Cc4c[nH]c5ccccc45)C(=O)N[C@@H](CCSC)C(=O)N[C@@H](Cc4c[nH]c5ccccc45)C(=O)N[C@@H]([C@@H](C)O)C(=O)N3)NC2=O)C(=O)N[C@@H](CCCCN)C(=O)N[C@@H](CC(C)C)C(=O)N[C@@H](Cc2cccc3ccccc23)C(=O)N1)C(N)=O` [compound 218], which Nav1.4/Nav1.7 is on record?
A: 434

Q: What about the Nav1.5/Nav1.7 of the same compound?
A: 833

Q: For `C#CC[C@H](N)C(=O)N[C@@H](Cc1ccc(O)cc1)C(=O)N[C@H]1CSSC[C@@H]2NC(=O)[C@@H]3CSSC[C@@H](C(=O)N[C@@H](CCCNC(=N)N)C(=O)N[C@@H](CCC(=O)O)C(=O)N[C@@H](CCC(=O)O)C(=O)N[C@H](C(N)=O)[C@@H](C)CC)NC(=O)[C@H](Cc4c[nH]c5ccccc45)NC(=O)[C@H](CC(C)C)NC(=O)[C@H](CCCCN)NC(=O)[C@H](CSSC[C@H](NC(=O)[C@H]([C@@H](C)O)NC(=O)[C@H](Cc4c[nH]c5ccccc45)NC(=O)[C@H](CCCC)NC(=O)[C@H](Cc4c[nH]c5ccccc45)NC(=O)[C@H](CCCCN)NC(=O)[C@H](CCC(N)=O)NC1=O)C(=O)N[C@@H](CC(=O)O)C(=O)N[C@@H](CO)C(=O)N[C@@H](CCCCN)C(=O)N[C@@H](CCCNC(=N)N)C(=O)N[C@@H](C)C(=O)N3)NC(=O)[C@H](CCCNC(=N)N)NC(=O)[C@H](CC(C)C)NC(=O)CNC(=O)[C@H](CCC(=O)O)NC2=O` [compound 725], which IC50 is on record?
A: > 10000 nM

Q: Which IC50 does the source give for `C#CC[C@H](N)C(=O)N[C@@H](Cc1ccc(O)cc1)C(=O)N[C@H]1CSSC[C@@H]2NC(=O)[C@@H]3CSSC[C@@H](C(=O)N[C@@H](CCCNC(=N)N)C(=O)N[C@@H](CCCCN)C(=O)N[C@@H](CCC(=O)O)C(=O)N[C@H](C(N)=O)[C@@H](C)CC)NC(=O)[C@H](Cc4c[nH]c5ccccc45)NC(=O)[C@H](CC(C)C)NC(=O)[C@H](CCCCN)NC(=O)[C@H](CSSC[C@H](NC(=O)[C@H]([C@@H](C)O)NC(=O)[C@H](Cc4c[nH]c5ccccc45)NC(=O)[C@H](CCCC)NC(=O)[C@H](Cc4c[nH]c5ccccc45)NC(=O)[C@H](CCC(N)=O)NC(=O)[C@H](CCC(N)=O)NC1=O)C(=O)N[C@@H](CC(=O)O)C(=O)N[C@@H](CO)C(=O)N[C@@H](CCCCN)C(=O)N[C@@H](CCCNC(N)=O)C(=O)N[C@@H](C)C(=O)N3)NC(=O)[C@H](CCCNC(=N)N)NC(=O)[C@H](CC(C)C)NC(=O)CNC(=O)[C@H](CCC(=O)O)NC2=O` [compound 807] here?
A: 20.9 nM

Q: For `CCCC[C@@H]1NC(=O)[C@H](Cc2c[nH]c3ccccc23)NC(=O)[C@H](CCCCN)NC(=O)[C@H](CCC(N)=O)NC(=O)[C@@H](NC(=O)[C@H](Cc2ccc(O)cc2)NC(=O)[C@@H](N)CC#N)CSSC[C@@H]2NC(=O)[C@@H]3CSSC[C@@H](C(=O)N[C@@H](CCCNC(=N)N)C(=O)N[C@@H](CCCCN)C(=O)N[C@@H](CCC(=O)O)C(=O)N[C@H](C(N)=O)[C@@H](C)CC)NC(=O)[C@H](Cc4c[nH]c5ccccc45)NC(=O)[C@H](CC(C)C)NC(=O)[C@H](CCCCN)NC(=O)[C@H](CSSC[C@H](NC(=O)[C@H]([C@@H](C)O)NC(=O)[C@H](Cc4c[nH]c5ccccc45)NC1=O)C(=O)N[C@@H](CC(=O)O)C(=O)N[C@@H](CCCCNC(=O)CCOCCOCCOCCOCCOCCOCCOCCOCCOCCOCCOCCOCCN)C(=O)N[C@@H](CCCCN)C(=O)N[C@@H](CCCNC(=N)N)C(=O)N[C@@H](C)C(=O)N3)NC(=O)[C@H](CCCNC(=N)N)NC(=O)[C@H](CC(C)C)NC(=O)CNC(=O)[C@H](CCC(=O)O)NC2=O` [compound 565], which Nav1.4/Nav1.7 is on record?
A: 75
